Source: PubChem BioAssay (NCI)
Where “and” joins values, the source holds several entries; their conditions need not be identical. Equal entries are not always repeated.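 Test compounds were applied to cells in 96-well plates for 48 hours at 5 doses. Abbreviation: GI50, concentration required for 50% inhibition of growth. The concentration for full growth arrest is given as TGI.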

Experiments:
Test in all cases: NCI tumour cell line growth inhibition, 48 h
HCT-116 colon = test system: HCT-116 colon
HCT-15 colon = test system: HCT-15 colon
HOP-62 NSCLC = test system: HOP-62 NSCLC
MALME-3M melanoma = test system: MALME-3M melanoma
MDA-MB-435 = test system: MDA-MB-435
MOLT-4 leukemia = test system: MOLT-4 leukemia
NCI-H226 lung = test system: NCI-H226 lung
NCI-H23 lung = test system: NCI-H23 lung
NCI-H460 lung = test system: NCI-H460 lung
OVCAR-3 ovarian = test system: OVCAR-3 ovarian
RXF 393 renal = test system: RXF 393 renal
SNB-19 CNS = test system: SNB-19 CNS
SW-620 colon = test system: SW-620 colon

Row | SMILES | TGI (HCT-116 colon) | TGI (HCT-15 colon) | TGI (HOP-62 NSCLC) | TGI (MALME-3M melanoma) | TGI (MDA-MB-435) | TGI (MOLT-4 leukemia) | TGI (NCI-H226 lung) [µM] | TGI (NCI-H23 lung) | TGI (NCI-H460 lung) | TGI (OVCAR-3 ovarian) | TGI (RXF 393 renal) | TGI (SNB-19 CNS) [µM] | TGI (SW-620 colon) | GI50 (HCT-116 colon) [µM] | GI50 (MOLT-4 leukemia) [µM] | GI50 (SW-620 colon) [µM]
1 | CC(SC(=S)N1CCOCC1)C(=O)Nc1nnc(-c2ccccc2)o1 (stereo not given) | > 100 µM | > 100 µM | > 100 µM | > 100 µM | > 100 µM | > 100 µM | > 100 | > 100 µM | > 100 µM | > 100 µM | > 100 µM | > 100 | > 100 µM | – | – | –
2 | Cc1nnc2sc(NN)nn12 | > 100 µM | > 100 µM | > 100 µM | > 100 µM | > 100 µM | 31.6 µM | > 100 | > 100 µM | > 100 µM | > 100 µM | > 100 µM | > 100 | > 100 µM | – | – | –
3 | Cc1nc(N/N=C/c2ccccc2Cl)[nH]c(=O)c1CCO | > 100 µM | > 100 µM | 50.4 µM | 91.4 µM | > 100 µM | > 100 µM | > 100 | > 100 µM | > 100 µM | 46.5 µM | 69.9 µM | > 100 | > 100 µM | – | – | –
4 | COc1ccc(C(CC(=O)C(C)(C)CN2CCCCC2)SCCS(=O)(=O)O)cc1 (stereo not given) | > 100 µM | > 100 µM | > 100 µM | 84.8 µM | 52.3 µM | 57 µM | > 100 | 98.7 µM | > 100 µM | 38.3 µM | > 100 µM | > 100 | > 100 µM | – | – | –
5 | Cc1nc2c(=O)n(-c3ccccc3)c3ccccc3c2o1 | > 100 µM | > 100 µM | > 100 µM | > 100 µM | > 100 µM | > 100 µM | > 100 | > 100 µM | > 100 µM | > 100 µM | > 100 µM | > 100 | > 100 µM | – | – | –
6 | O=P1(Oc2ccccc2)N(CCCl)CCN1c1ccccc1 (stereo not given) | > 100 µM | > 100 µM | > 100 µM | > 100 µM | > 100 µM | > 100 µM | > 100 | > 100 µM | > 100 µM | > 100 µM | > 100 µM | > 100 | > 100 µM | – | – | –
7 | Nc1ccn(C2CCC(CO)O2)c(=S)n1 (stereo not given) | > 100 µM | > 100 µM | > 100 µM | > 100 µM | > 100 µM | > 100 µM | > 100 | > 100 µM | > 100 µM | > 100 µM | > 100 µM | > 100 | > 100 µM | – | – | –
8 | COc1ccc2[nH]cc([C@@H]3C4CCC(C4)[C@H]3NCc3cccc(CN[C@H]4C5CCC(C5)[C@@H]4c4c[nH]c5ccc(OC)cc45)c3)c2c1 | 1.08 µM and 2.02 µM | 1.95 µM and 2.39 µM | 2.89 µM and 2.97 µM | 3.32 µM and 3.31 µM | 0.988 µM and 0.962 µM | 3.76 µM and 1.29 µM | 3.64 | 3 µM and 2.93 µM | 0.556 µM and 1.12 µM | 2.89 µM and 3.02 µM | 3.1 µM and 2.79 µM | 2.94 | 0.333 µM and 0.627 µM | 0.351 | 1.56 | 0.177
9 | Cc1ccc(Nc2c(C#N)[n+]([O-])c3cc(Cl)ccc3[n+]2[O-])cc1 | > 100 µM | > 100 µM | > 100 µM | > 100 µM | > 100 µM | > 100 µM | > 100 | > 100 µM | > 100 µM | > 42.4 µM | > 100 µM | > 100 | > 100 µM | – | – | –
10 | CN(C)P(=O)(Oc1ccc(CC(NC(=O)OCc2ccccc2)C(=O)OCc2ccccc2)cc1)N(C)C (stereo not given) | 31.3 µM | 33 µM | 31.7 µM | 32.7 µM | 25.7 µM | 13.7 µM | 52.8 | 28.1 µM | 48.8 µM | 11.4 µM | 32.7 µM | 38.6 | 45.8 µM | – | – | –
11 | CNC(=O)N(CCC#N)CCCN(C(=O)NC)c1ccccc1 | > 100 µM | > 100 µM | > 100 µM | > 100 µM | > 100 µM | > 100 µM | > 100 | > 100 µM | > 100 µM | > 100 µM | > 100 µM | > 100 | > 100 µM | – | – | –
12 | CCOC(=O)C(C)NC(=O)C(C)NC(=O)C(C)NC(=O)C(C)NC(=O)C(C)NC(=O)OCc1ccccc1 (stereo not given) | > 100 µM | > 100 µM | > 100 µM | > 100 µM | > 100 µM | > 100 µM | > 100 | > 100 µM | > 100 µM | > 100 µM | > 100 µM | > 100 | > 100 µM | – | – | –
13 | Cc1ncc2c(=O)c3c(oc2n1)c1ccccc1n3Cc1ccccc1 | > 100 µM | > 100 µM | 79.5 µM | > 100 µM | > 100 µM | > 100 µM | > 100 | > 100 µM | > 100 µM | > 100 µM | > 100 µM | > 100 | > 100 µM | – | – | –
14 | CCc1n[nH]c(=O)n1/N=C/c1ccc(C)cc1 | > 100 µM | > 100 µM | > 100 µM | > 100 µM | > 100 µM | > 100 µM | > 100 | > 100 µM | > 100 µM | > 100 µM | > 100 µM | > 100 | > 100 µM | – | – | –
